Assay results from US20020136733A1, “Malaria peptides” (priority 1994, published 2002).
Marks after values point to notes of the source that are not given here. Residues, ends and D or L forms follow the SMILES beside them.

Biological target: T1, HLA-A2 (Homo sapiens, UniProt P04439, D140Y/D185E/D98H/E176V/E277Q/G131W/G231S/I119V/I121R/I166T/I218V/L300P/L318F/N151K/N90K/P208A/P217A/Q86G/Q94H/R138H/R169H/T345S)
T1 construct: using the untransfected T2 cell line (for HLA-A2); endogenous in cells; host or cells: untransfected T2 cell line
Experiment: HLA assembly assay, binding to HLA-A2 (untransfected T2 cell line)
Settings: not given
Text: (§1) We have recently described a novel approach to identifying CTL epitopes and potential CTL epitopes in P. falciparum^1. This consisted, in brief, of 1) determining a motif for peptides bound to a particular KLA class I molecules, 2) synthesizing peptides from P. falciparum antigens congruent with this motif, 3) testing whether these peptides bind to that HLA class I allele using a binding assay known as a HLA assembly assay, and 4) testing whether lymphocytes from individuals exposed to malaria could recognise these peptides as epitopes after suitable in vitro restimulation and culture. In that work we identified peptide epitopes and potential peptide epitopes for two HLA class I molecules, HLA-B53 and HLA-B35. Here we extend that work to four further HLA class I molecules: HLA-A2, HLA-B8, HLA-B7 and HLA-B17. 52 peptides are identified that are shown either to be epitopes or potential epitopes for these HLA class I molecules.
(§2) As described previously for identification of HLA-B35 and HLA-B53 epitopes^1, peptides were synthesised to correspond to these four motifs from the primary amino acid sequences of four P. falciparum pre-erythrocytic antigens: CSP, TRAP, LSA-1 and SHEBA. Over one hundred peptides were synthesized. Binding assays^7 were performed on selected peptides to determine whether they bound to HLA-A2, -B7, -B8, or -B58 using the untransfected T2 cell line (for HLA-A2) or the T2 cell line transfected with HLA-B7 (used to assess binding to HLA-B7s), or with HLA-B8 (used to assess binding to HLA-B8), or with HLA-B58 (used to assess binding to HLA-B58).

Row | Molecule | binding to HLA-A2 in the HLA assembly assay
1 | LLMDCSGSI [tr29, TRAP peptide, position 51, HLA-A2] | bound
2 | ILYISFYFI [ls10] | bind
3 | HIFDGDNEI [ls23, LSA-1 peptide, position 1883, HLA-A2] | bind
4 | YISFYFILV [ls11] | bind
5 | GIYKELEDL [ls19, LSA-1 peptide, position 1801, HLA-A2] | bind

Biological target: T2, HLA-B7 (Homo sapiens, UniProt P01889)
T2 construct: expressed in transfected cells; host or cells: T2 cell line
Experiment: not given
Assay type: binding
Settings: not given
Text: as §1, §2

T2 sequence (P61769 21-119): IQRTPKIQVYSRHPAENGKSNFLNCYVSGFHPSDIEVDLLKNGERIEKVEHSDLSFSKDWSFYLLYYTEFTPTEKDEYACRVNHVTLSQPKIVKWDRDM
T2 sequence (P01889 25-362): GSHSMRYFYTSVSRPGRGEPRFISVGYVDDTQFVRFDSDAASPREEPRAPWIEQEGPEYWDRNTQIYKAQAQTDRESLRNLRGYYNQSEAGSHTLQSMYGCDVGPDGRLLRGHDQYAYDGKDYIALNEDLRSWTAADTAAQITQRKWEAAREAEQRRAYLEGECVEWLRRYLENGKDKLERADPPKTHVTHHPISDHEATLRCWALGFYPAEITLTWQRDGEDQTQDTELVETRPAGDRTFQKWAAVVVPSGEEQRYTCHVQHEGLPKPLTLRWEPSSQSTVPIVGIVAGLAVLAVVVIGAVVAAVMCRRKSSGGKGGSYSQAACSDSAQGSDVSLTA

Row | Molecule | binding to HLA-B7 in the HLA assembly assay
6 | MPLETQLAI [sh6] | bind

Same assay, conditions: T2 cell line transfected with HLA-B7

Row | Molecule | binding to HLA-B7 in the HLA assembly assay
7 | EPAPFDETL [tr15] | bind
8 | GPFMKAVCV [tr21] | bind
9 | NPENPPNPDI [tr6, TRAP peptide, position 348, HLA-B7] | bind
10 | IPDSIQDSL [tr13] | bind
11 | NPDPNANPNV [cp21] | bind
12 | KPIVQYDNF [ls6, LSA-1 peptide, position 1786, HLA-B7] | bind
13 | IPSLALMLI [sh1, SHEBA peptide, position 7, HLA-B7] | bind

System: HLA matched or autologous B cell line targets pre-pulsed with the peptide
Experiment: CTL chromium release assay with restimulated lymphocytes from malaria-exposed Gambians
Assay type: cell-based, human
Settings: Gambian adults with HLA-B8 (Z42, Z130, Z80, Z169); 10% or greater specific lysis regarded as significant
Procedure: Peptides shown to bind to a particular HLA class I allele were tested for CTL recognition in assays using lymphocytes from malaria-exposed Gambians, as described previously^1. A minority of peptides, synthesized to correspond to a peptides binding motif were not tested in the relevant assembly assay but tested only for CTL recognition. Cells from 82 adult Gambians and 53 Gambian children, all exposed to malaria, were used in the course of these studies. The children and adults were HLA typed using cellular or molecular techniques as described previously^1. Peptides were incubated with cells either singly, or in pools as described^1 at concentrations of 10-100 μM. Peptides could either be left with the cells for the duration of restimulation (as reported^1) or washed off after an hour. Cells were cultured for 1-3 weeks before a standard CTL chromium release assay^1 was performed using HLA matched or autologous B cell line targets pre-pulsed with the peptide to be tested. Peptides were tested either singly or in pools for CTL recognition.

Row | Molecule | CTL recognition / lysis of peptide-pulsed target cells
14 | LRKPKHKKL [cp43, circumsporozoite protein peptide, position 134, HLA-B8] | HLA-B8-restricted CTL epitope

Same assay, conditions: asterisk beside the label in the table; HLA class I molecule

Row | Molecule | identified as an epitope for a secondary cytotoxic T lymphocyte response
15 | CC(C)C[C@H](NC(=O)[C@H](C)NC(=O)[C@H](CCCCN)NC(=O)[C@H](CCC(=O)O)NC(=O)[C@H](CCCCN)NC(=O)[C@H](CC(N)=O)NC(=O)[C@H](CCCCN)NC(=O)[C@H](CO)NC(=O)[C@H](C)N)C(=O)O [tr42, ASKNKEKAL] (H-ASKNKEKAL-OH; N-terminus and C-terminus assumed) | tr42 *
16 | CC[C@H](C)[C@H](NC(=O)CN)C(=O)N[C@@H](C)C(=O)NCC(=O)NCC(=O)N[C@@H](CC(C)C)C(=O)N[C@@H](C)C(=O)N[C@@H](CC(C)C)C(=O)N[C@@H](CC(C)C)C(=O)O [tr39, GIAGGLALL] (H-GIAGGLALL-OH; N-terminus and C-terminus assumed) | tr39 *
17 | CC[C@H](C)[C@H](NC(=O)[C@H](CCCCN)NC(=O)[C@H](CCC(N)=O)NC(=O)[C@H](CC(C)C)NC(=O)[C@@H](N)Cc1ccc(O)cc1)C(=O)N[C@@H](CCC(N)=O)C(=O)N[C@@H](CC(N)=O)C(=O)N[C@@H](CO)C(=O)N[C@@H](CC(C)C)C(=O)O [cp37, YLQKIQNSL] (H-YLQKIQNSL-OH; N-terminus and C-terminus assumed) | cp37 *
18 | CC[C@H](C)[C@H](NC(=O)[C@@H](NC(=O)[C@H](CCCCN)NC(=O)[C@H](CC(C)C)NC(=O)[C@@H](N)Cc1ccc(O)cc1)[C@@H](C)O)C(=O)N[C@@H](CCC(N)=O)C(=O)N[C@@H](CC(N)=O)C(=O)N[C@@H](CO)C(=O)N[C@@H](CC(C)C)C(=O)O [cp36, YLKTIQNSL] (H-YLKTIQNSL-OH; N-terminus and C-terminus assumed) | cp36 *
19 | CSCC[C@H](N)C(=O)N1CCC[C@H]1C(=O)N[C@@H](CC(N)=O)C(=O)N[C@@H](Cc1ccc(O)cc1)C(=O)N1CCC[C@H]1C(=O)N[C@@H](CC(N)=O)C(=O)N[C@@H](CCCNC(=N)N)C(=O)N[C@@H](CC(N)=O)C(=O)N[C@H](C(=O)O)C(C)C [cp6.1, MPNYPNRNV] (H-MPNYPNRNV-OH; N-terminus and C-terminus assumed) | cp6.1 *
20 | CC(C)C[C@H](NC(=O)[C@H](Cc1ccc(O)cc1)NC(=O)[C@H](CCCCN)NC(=O)[C@@H](NC(=O)[C@H](CC(N)=O)NC(=O)CNC(=O)[C@H](CC(C)C)NC(=O)[C@@H](N)Cc1c[nH]cn1)C(C)C)C(=O)N[C@H](C(=O)O)C(C)C [tr26, HLGNVKYLV] (H-HLGNVKYLV-OH; N-terminus and C-terminus assumed) | tr26 *
21 | CC[C@H](C)[C@H](NC(=O)[C@@H](NC(=O)[C@H](CC(C)C)NC(=O)[C@H](C)NC(=O)[C@H](CCCCN)NC(=O)[C@H](CCC(=O)O)NC(=O)[C@H](CCCCN)NC(=O)[C@H](CC(N)=O)NC(=O)[C@@H](N)CCCCN)[C@@H](C)CC)C(=O)O [tr43, KNKEKALII] (H-KNKEKALII-OH; N-terminus and C-terminus assumed) | tr43 *
22 | CSCC[C@H](N)C(=O)N1CCC[C@H]1C(=O)N[C@@H](CC(N)=O)C(=O)N[C@@H](CC(N)=O)C(=O)N1CCC[C@H]1C(=O)N[C@@H](CC(N)=O)C(=O)N[C@@H](CCCNC(=N)N)C(=O)N[C@@H](CC(N)=O)C(=O)N[C@H](C(=O)O)C(C)C [cp6.2, MPNNPNRNV] (H-MPNNPNRNV-OH; N-terminus and C-terminus assumed) | cp6.2 *
23 | CC[C@H](C)[C@H](NC(=O)[C@H](CCCCN)NC(=O)[C@H](CCC(N)=O)NC(=O)[C@H](CC(C)C)NC(=O)[C@@H](N)Cc1ccc(O)cc1)C(=O)N[C@@H](CCCCN)C(=O)N[C@@H](CC(N)=O)C(=O)N[C@@H](CO)C(=O)N[C@@H](CC(C)C)C(=O)O [cp38, YLQKIKNSL] (H-YLQKIKNSL-OH; N-terminus and C-terminus assumed) | cp38 *

System: HLA-B17
Experiment: HLA assembly assay, binding to HLA-B17 (T2 cell line transfected with HLA-B58)
Set-up: species or system human
Settings: not given
Text: as §1
The peptide binding motifs of HLA-A2, HLA-B7 and HLA-B8 have been described. For HLA-A2 strong preferences were found at positions 2 and 9 of bound peptides: for leucine, isoleucine and methionine at position 2, and for valine, leucine and isoleucine at position 9^3, 4 For HLA-B7 the preferred residues were proline at position 2 and a hydrophobic residue at position 9. Leucine, isoleucine, valine, alanine, phenylalanine and tryptophan were the hydrophobic residues preferred^5. For HLA-B8 preferred residues were found at positions 3, 5 and 9^6. At positions 3 and 5 lysine or arginine are preferred and at position 9, leucine or isoleucine or valine. The motif for peptides bound to HLA-B17 has not been reported so we determined this exactly as described for HLA-B35^1, using instead of the cell line CIR-B35, the cell line CIR-B58.
(§3) As described previously for identification of HLA-B35 and HLA-B53 epitopes^1, peptides were synthesised to correspond to these four motifs from the primary amino acid sequences of four P. falciparum pre-erythrocytic antigens: CSP, TRAP, LSA-1 and SHEBA. Over one hundred peptides were synthesized. […]

Row | Molecule | binding to HLA-B17 in the HLA assembly assay
24 | CSSVFNVV [cp56, circumsporozoite protein peptide, position 388, HLA-B17] | bind
25 | LSVSSFLFV [cp48, circumsporozoite protein peptide, position 8, HLA-B17] | bind
26 | GSANKPKDEL [cp55, circumsporozoite protein peptide, position 364, HLA-B17] | bind

System: HLA-B8
Experiment: HLA assembly assay, binding to HLA-B8 (T2 cell line transfected with HLA-B8)
Set-up: species or system human
Settings: not given
Text: as §1, §3

Row | Molecule | binding to HLA-B8 in the HLA assembly assay
27 | LRKPKHKKL [cp43, circumsporozoite protein peptide, position 134, HLA-B8] | bound
